How the values were obtained:
[1] = Maximum absorption wavelength of the compounds; format: physicochemical
Text: Some representative examples of the compounds utilizable as the photochemotherapeutic agent according to the present invention are shown below.

[2] = background art statement; cited from earlier work

Compound: CC1CC(C=CC=C/C=C2\CC(C)Cc3c(-c4ccccc4)cc(-c4ccccc4)[o+]c32)=C2OC(c3ccccc3)=CC(c3ccccc3)=C2C1 (stereo not drawn) [Polymethine type 4]
- Maximum absorption wavelength (λmax) [1]: 1045 nm

Compound: dihematoporphyrin [Photofrin]
- maximum absorption wavelength [2]: 363 nm

Compound: CCN(CC)c1ccc(C(=CC=CC(=C2C=CC(=[N+](CC)CC)C=C2)c2ccc(N(CC)CC)cc2)c2ccc(N(CC)CC)cc2)cc1 [Polymethine type 1]
- Maximum absorption wavelength (λmax) [1]: 820 nm

— patent publication US6500816B1, “Remedies for photochemotherapy” (Nippon Kayaku Kabushiki Kaisha, priority 1998, dated 2002)
